Results taken from PubChem BioAssay AID256 (DTP/NCI, 2004).
Several values for one entry are separate records, joined by “and”; a condition that tells them apart may be missing. Equal entries are not always repeated. Inconclusive results and toxic doses are left out. The calls were made as follows: active = survival T/C of 150% or more; inactive = T/C below 125% in these data.

Tested on: CD2F1 mice, L1210 leukemia ip, survival T/C
Test: NCI In Vivo Anticancer Drug Screen. Data for tumor model L1210 Leukemia (intraperitoneal) in CD2F1 (CDF1) mice
Details: higher = longer survival
Outline: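 Vehicle-treated tumor-bearing mice served as controls (C) for compound-treated mice (T). Reported figure is T divided by C.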

[1] = endpoint: mean survival time, dose: 100.0 mg/kg/injection, schedule: Q04DX002 (ip), vehicle: saline with Tween-80
[2] = endpoint: mean survival time, dose: 200.0 mg/kg/injection, schedule: Q04DX002 (ip), vehicle: saline with Tween-80
[3] = endpoint: mean survival time, dose: 400.0 mg/kg/injection, schedule: Q04DX002 (ip), vehicle: saline with Tween-80
[4] = endpoint: mean survival time, dose: 50.0 mg/kg/injection, schedule: Q01DX009 (ip), vehicle: Klucel (hydroxypropylcellulose) (HPC)
[5] = endpoint: mean survival time, dose: 100.0 mg/kg/injection, schedule: Q01DX009 (ip), vehicle: Klucel (hydroxypropylcellulose) (HPC)
[6] = endpoint: mean survival time, dose: 200.0 mg/kg/injection, schedule: Q01DX009 (ip), vehicle: Klucel (hydroxypropylcellulose) (HPC)
[7] = endpoint: mean survival time, dose: 100.0 mg/kg/injection, schedule: Q01DX009 (ip), vehicle: saline with Tween-80
[8] = endpoint: mean survival time, dose: 400.0 mg/kg/injection, schedule: Q01DX009 (ip), vehicle: saline with Tween-80
[9] = endpoint: mean survival time, dose: 100.0 mg/kg/injection, schedule: Q01DX009 (ip), vehicle: saline
[10] = endpoint: mean survival time, dose: 200.0 mg/kg/injection, schedule: Q01DX009 (ip), vehicle: saline
[11] = endpoint: mean survival time, dose: 400.0 mg/kg/injection, schedule: Q01DX009 (ip), vehicle: saline

Measured: T/C

C=CCCC(=O)CCCC(=O)O[C@@H]1[C@@H]2[C@H](CC1(C)C)[C@H](O)[C@@]13O[C@@H]1[C@H](O)[C@@]1(CO1)[C@@]23C
inactive: endpoint: mean survival time, dose: 6.2 micrograms/kg/injection, schedule: Q01DX009 (ip), vehicle: saline 95 % of control | endpoint: mean survival time, dose: 12.5 micrograms/kg/injection, schedule: Q01DX009 (ip), vehicle: saline 89 % of control | endpoint: mean survival time, dose: 25.0 micrograms/kg/injection, schedule: Q01DX009 (ip), vehicle: saline 95 % of control | endpoint: mean survival time, dose: 50.0 micrograms/kg/injection, schedule: Q01DX009 (ip), vehicle: saline 97 % of control | endpoint: median survival time, dose: 25.0 micrograms/kg/injection, schedule: Q01DX009 (ip), vehicle: Klucel (hydroxypropylcellulose) (HPC) 101 % of control | endpoint: median survival time, dose: 50.0 micrograms/kg/injection, schedule: Q01DX009 (ip), vehicle: Klucel (hydroxypropylcellulose) (HPC) 101 % of control | endpoint: median survival time, dose: 100.0 micrograms/kg/injection, schedule: Q01DX009 (ip), vehicle: Klucel (hydroxypropylcellulose) (HPC) 100 % of control | endpoint: median survival time, dose: 200.0 micrograms/kg/injection, schedule: Q01DX009 (ip), vehicle: Klucel (hydroxypropylcellulose) (HPC) 94 % of control | endpoint: median survival time, dose: 400.0 micrograms/kg/injection, schedule: Q01DX009 (ip), vehicle: Klucel (hydroxypropylcellulose) (HPC) 97 % of control

CCOC(=O)C(C(C)=O)C(=O)/C=C/c1ccccc1 (centres undefined)
inactive: endpoint: mean survival time, dose: 100.0 mg/kg/injection, schedule: Q04DX003 (ip), vehicle: saline with Tween-80 98 % of control | endpoint: mean survival time, dose: 200.0 mg/kg/injection, schedule: Q04DX003 (ip), vehicle: saline with Tween-80 103 % of control | endpoint: mean survival time, dose: 400.0 mg/kg/injection, schedule: Q04DX003 (ip), vehicle: saline with Tween-80 97 % of control

O=S(=O)(O)SCCN1CCCC1
inactive: endpoint: mean survival time, dose: 12.5 mg/kg/injection, schedule: Q01DX009 (ip), vehicle: saline 107 % of control | endpoint: mean survival time, dose: 12.5 mg/kg/injection, schedule: Q04DX003 (ip), vehicle: saline sonified 101 % of control | endpoint: mean survival time, dose: 25.0 mg/kg/injection, schedule: Q01DX009 (ip), vehicle: saline 104 % of control | endpoint: mean survival time, dose: 25.0 mg/kg/injection, schedule: Q04DX003 (ip), vehicle: saline sonified 98 % of control | endpoint: mean survival time, dose: 50.0 mg/kg/injection, schedule: Q01DX009 (ip), vehicle: saline 102 % of control | endpoint: mean survival time, dose: 50.0 mg/kg/injection, schedule: Q04DX003 (ip), vehicle: saline sonified 96 % of control

Cc1cc(S(=O)(=O)F)cc(Cl)c1SC(=O)N(C)C
inactive: [1] 91 % of control | [2] 95 % of control | [3] 91 % of control

C/C=C/COc1c(C)cc(C)cc1/C=C/C
inactive: [1] 94 % of control | [2] 94 % of control | [3] 102 % of control

C1CC[N-]CC1.C1CC[N-]CC1.N#C[S-].N#C[S-].[Cu]
inactive: endpoint: mean survival time, dose: 2.5 mg/kg/injection, schedule: Q04DX003 (ip), vehicle: saline with Tween-80 98 % of control | endpoint: mean survival time, dose: 5.0 mg/kg/injection, schedule: Q04DX003 (ip), vehicle: saline with Tween-80 92 % of control

CC1OC(O)C(O)C(O)C1O (centres undefined)
inactive: endpoint: mean survival time, dose: 100.0 mg/kg/injection, schedule: Q01DX001 (ip), vehicle: saline 102 % of control | endpoint: mean survival time, dose: 200.0 mg/kg/injection, schedule: Q01DX001 (ip), vehicle: saline 100 % of control | endpoint: mean survival time, dose: 400.0 mg/kg/injection, schedule: Q01DX001 (ip), vehicle: saline 100 % of control

CN(C)/C=C(\C#N)C=O
inactive: endpoint: mean survival time, dose: 18.75 mg/kg/injection, schedule: Q01DX009 (ip), vehicle: saline with Tween-80 95 % of control | endpoint: mean survival time, dose: 37.5 mg/kg/injection, schedule: Q01DX009 (ip), vehicle: saline with Tween-80 101 % of control | endpoint: mean survival time, dose: 75.0 mg/kg/injection, schedule: Q01DX009 (ip), vehicle: saline with Tween-80 101 % of control | endpoint: mean survival time, dose: 75.0 mg/kg/injection, schedule: Q04DX003 (ip), vehicle: saline with Tween-80 87 % of control

CNC(=S)C#N
inactive: endpoint: median survival time, dose: 6.25 mg/kg/injection, schedule: Q01DX005 (ip), vehicle: saline + Tween-80 + alcohol 100 % of control | endpoint: median survival time, dose: 12.5 mg/kg/injection, schedule: Q01DX005 (ip), vehicle: saline + Tween-80 + alcohol 97 % of control | endpoint: median survival time, dose: 25.0 mg/kg/injection, schedule: Q01DX005 (ip), vehicle: saline + Tween-80 + alcohol 98 % of control and 102 % of control | endpoint: median survival time, dose: 50.0 mg/kg/injection, schedule: Q01DX005 (ip), vehicle: saline + Tween-80 + alcohol 87 % of control and 112 % of control

C=Cc1cnc([N+](=O)[O-])n1C
inactive: endpoint: mean survival time, dose: 12.5 mg/kg/injection, schedule: Q01DX009 (ip), vehicle: Klucel (hydroxypropylcellulose) (HPC) 103 % of control | endpoint: mean survival time, dose: 25.0 mg/kg/injection, schedule: Q01DX009 (ip), vehicle: Klucel (hydroxypropylcellulose) (HPC) 101 % of control | [4] 101 % of control | [5] 103 % of control | [6] 101 % of control

C1CCC(C2CCCC[N-]2)[N-]C1.[Cl][Pt].[NH-]CC(=O)O (centres undefined)
inactive: endpoint: median survival time, dose: 10.0 mg/kg/injection, schedule: Q04DX003 (ip), vehicle: saline 101 % of control | endpoint: median survival time, dose: 20.0 mg/kg/injection, schedule: Q04DX003 (ip), vehicle: saline 105 % of control | endpoint: median survival time, dose: 40.0 mg/kg/injection, schedule: Q04DX003 (ip), vehicle: saline 98 % of control | endpoint: median survival time, dose: 80.0 mg/kg/injection, schedule: Q04DX003 (ip), vehicle: saline 95 % of control and 96 % of control | endpoint: median survival time, dose: 160.0 mg/kg/injection, schedule: Q04DX003 (ip), vehicle: saline 90 % of control | endpoint: median survival time, dose: 320.0 mg/kg/injection, schedule: Q04DX003 (ip), vehicle: saline 101 % of control

NC(=O)c1nc(C2OC(CO)C(O)C2O)no1 (centres undefined)
inactive: endpoint: mean survival time, dose: 12.5 mg/kg/injection, schedule: Q01DX005 (ip), vehicle: water 98 % of control | endpoint: mean survival time, dose: 25.0 mg/kg/injection, schedule: Q01DX005 (ip), vehicle: water 98 % of control | endpoint: mean survival time, dose: 50.0 mg/kg/injection, schedule: Q01DX005 (ip), vehicle: water 108 % of control | endpoint: mean survival time, dose: 100.0 mg/kg/injection, schedule: Q01DX005 (ip), vehicle: water 98 % of control | endpoint: mean survival time, dose: 200.0 mg/kg/injection, schedule: Q01DX005 (ip), vehicle: water 98 % of control

O=C(O)c1ccco1
inactive: endpoint: mean survival time, dose: 100.0 mg/kg/injection, schedule: Q04DX003 (ip), vehicle: saline 94 % of control | endpoint: mean survival time, dose: 200.0 mg/kg/injection, schedule: Q04DX003 (ip), vehicle: saline 95 % of control

CNC(=O)NNC(=O)c1ccccc1Cl
inactive: [7] 88 % of control | endpoint: mean survival time, dose: 200.0 mg/kg/injection, schedule: Q01DX009 (ip), vehicle: saline with Tween-80 108 % of control | [8] 98 % of control

COc1cc2ccc(CCN)cc2cc1OC
inactive: endpoint: mean survival time, dose: 12.5 mg/kg/injection, schedule: Q04DX003 (ip), vehicle: saline with Tween-80 102 % of control | endpoint: mean survival time, dose: 25.0 mg/kg/injection, schedule: Q04DX003 (ip), vehicle: saline with Tween-80 102 % of control | endpoint: mean survival time, dose: 50.0 mg/kg/injection, schedule: Q04DX003 (ip), vehicle: saline with Tween-80 96 % of control

Cc1ccccc1C[P+](c1ccccc1)(c1ccccc1)c1ccccc1
inactive: endpoint: mean survival time, dose: 1.0 mg/kg/injection, schedule: Q01DX009 (ip), vehicle: saline 88 % of control | endpoint: mean survival time, dose: 2.0 mg/kg/injection, schedule: Q01DX009 (ip), vehicle: saline 96 % of control | endpoint: mean survival time, dose: 4.0 mg/kg/injection, schedule: Q01DX009 (ip), vehicle: saline 92 % of control | endpoint: mean survival time, dose: 8.0 mg/kg/injection, schedule: Q01DX009 (ip), vehicle: saline 108 % of control

O=C(c1ccccc1Cl)c1cccc2ccccc12
inactive: [9] 110 % of control | [10] 96 % of control | [11] 94 % of control

CC(C(=O)c1ccccc1)C(c1ccccc1)P(=O)(c1ccccc1)c1ccccc1 (centres undefined)
inactive: [7] 102 % of control | [8] 104 % of control

OCC(O)C(O)C(O)C(O)C(O)CO (centres undefined)
inactive: [4] 98 % of control | [5] 102 % of control | [9] 98 % of control | endpoint: mean survival time, dose: 100.0 mg/kg/injection, schedule: Q04DX002 (ip), vehicle: saline 100 % of control | [6] 98 % of control | [10] 91 % of control | endpoint: mean survival time, dose: 200.0 mg/kg/injection, schedule: Q04DX002 (ip), vehicle: saline 107 % of control | [11] 102 % of control | endpoint: mean survival time, dose: 400.0 mg/kg/injection, schedule: Q04DX002 (ip), vehicle: saline 96 % of control

C[N+](C)(Cc1ccc(F)cc1)C1c2ccccc2-c2ccccc21
inactive: endpoint: mean survival time, dose: 1.56 mg/kg/injection, schedule: Q04DX003 (ip), vehicle: saline 97 % of control | endpoint: mean survival time, dose: 3.13 mg/kg/injection, schedule: Q04DX003 (ip), vehicle: saline 97 % of control | endpoint: mean survival time, dose: 6.25 mg/kg/injection, schedule: Q04DX003 (ip), vehicle: saline 98 % of control

CC1(Br)OC(=O)CC1Br (centres undefined)
inactive: [1] 106 % of control | [2] 91 % of control
